{"source": "patent US20240058265A1", "about": "“TREATMENT OF OCULAR DISEASES USING ENDOTHELIN RECEPTOR ANTAGONISTS” (Perfuse Therapeutics, Inc., priority 2021, published 2024)", "key": {"Stability in solid state": {"experiment": "Stability in solid state", "type": "physicochemical", "conditions": "2 h@125° C.", "text": "(§1) In the above table, the physicochemical data, e.g., solubility, were obtained following standard protocols known in the field (see, e.g., Reis et al., Mini Rev Med Chem., 2010, 10(11):1071-6; Avdeef et al., Expert Opin Drug Metab Toxicol., 2005, 1(2):325-42; Bharate et al., Comb Chem High Throughput Screen., 2016, 19(6):461-9; and Jain et al., J Pharm Biomed Anal., 2013, 86:11-35.); and the biochemical data, i.e., potency for ETA/ETB, were obtained following the protocols known in the field (see, e.g., Kirkby et al., Br J Pharmacol., 2008, 153(6):1105-19; and Maguire et al., Br J Pharmacol., 2014, 171(24):5555-72.)."}, "[1]": {"experiment": "Pharmacokinetics after topical or oral administration in the rat", "type": "in vivo, Brown Norway rats", "experimental": "After the administrations, the animals (N=2) were euthanized at different time points (e.g. 4 and 8 hours) and tissues were collected for analysis. List of tissues collected include plasma, retina/retinal pigment epithelium (RPE)/choroid, vitreous humor and aqueous humor."}, "[2]": {"experiment": "Pharmacokinetics after topical administration in the rabbit", "type": "in vivo, Dutch-belted rabbits", "conditions": "single topical eye drop 100 μg, 10 minutes, 2 and 7 hours", "experimental": "To determine the pharmacokinetic properties of Edonentan following topical administration in the rabbit, rabbits (Dutch-belted rabbits) received an eye drop in both eyes (100 μg of Edonentan, 35 μL dose volume/eye). After the administrations, the animals (N=2) were euthanized at different time points (e.g. 10 minutes (immediately after pot-dose), 2 and 7 hours) and tissues were collected for analysis. List of tissues collected include plasma, retina, vitreous humor and bulbar conjunctiva."}, "ETA receptor": {"biological_target": "T1, ETA receptor (Homo sapiens, UniProt P25101)", "T1 sequence (P25101 21-427)": "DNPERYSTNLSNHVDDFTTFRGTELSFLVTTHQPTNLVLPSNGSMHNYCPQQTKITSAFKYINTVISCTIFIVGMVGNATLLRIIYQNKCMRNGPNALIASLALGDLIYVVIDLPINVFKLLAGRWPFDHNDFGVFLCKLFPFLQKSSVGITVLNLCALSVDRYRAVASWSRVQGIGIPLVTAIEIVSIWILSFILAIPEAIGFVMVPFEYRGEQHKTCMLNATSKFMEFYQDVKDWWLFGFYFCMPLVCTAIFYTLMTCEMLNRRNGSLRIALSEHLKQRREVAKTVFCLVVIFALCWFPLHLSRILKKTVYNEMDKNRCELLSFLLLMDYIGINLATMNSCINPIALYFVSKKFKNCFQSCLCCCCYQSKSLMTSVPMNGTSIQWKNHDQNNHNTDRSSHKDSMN", "experiment": "Functional potency for ETA receptor", "type": "biochemical", "text": "as §1"}, "[3]": {"tested_on": "laser-induced glaucoma eye", "experiment": "Laser-induced glaucoma non-human primate, optic nerve head blood flow (LSFG) after IVT administration", "type": "in vivo, rhesus macaque, Macaca Mulatta", "conditions": "IVT 50 μL of 0.02, 0.2 or 2.0 mg/mL, over 6 hours, glaucomatous eye", "experimental": "Non-human primates (rhesus macaque, Macaca Mulatta) were obtained for this study. One eye of each animal underwent induction of elevation of intraocular pressure (TOP) by repeated laser photocoagulation of the trabecular meshwork. Imaging sessions were repeated to monitor the optic nerve head (ONH) and retinal structural changes. A study was performed to compare an experimental glaucoma eye and a contralateral healthy eye (control) of three non-human primates in global average mean blur rate (MBR) and MBR change from baseline over time as an index of ONH blood flow in a laser-induced glaucoma model. More specifically, a vehicle control, 0.02 mg/mL of Edonentan, 0.2 mg/mL of Edonentan, or 2.0 mg/mL of Edonentan was intravitreally administered (50 μL) to a glaucomatous eye of each of three non-human primates (rhesus macaque, Macaca Mulatta). These graphs show the ONH blood flow in the three non-human primates after IVT administration of a vehicle alone (FIG. 7A, FIG. 7E, and FIG. 7I), 0.02 mg/mL of Edonentan (FIG. 7B, FIG. 7F, and FIG. 7J), 0.2 mg/mL of Edonentan (FIG. 7C, FIG. 7G, and FIG. 7K) or 2.0 mg/mL of Edonentan (FIG. 7D, FIG. 7H, and FIG. 7L)."}}}
{"smiles": "Cc1onc(NS(=O)(=O)c2ccccc2-c2ccc(-c3ncco3)cc2CN(C)C(=O)CC(C)(C)C)c1C", "note": "[Edonentan, N-[[2′-[[(4,5-dimethyl-3-isoxazolyl)amino]sulfonyl]-4-(2-oxazolyl)[1,1′-biphenyl]-2-yl]methyl]-N,3,3-trimethylbutanamide]", "values": [{"measurement": "Stability in Solid State (verdict)", "setting": "Stability in solid state", "value": "Stable"}, {"measurement": "Detection in aqueous humor after oral administration", "setting": "[1]; oral, 17 mg/kg", "value": "detectable"}, {"measurement": "Detection in retina/RPE/choroid and vitreous humor after oral administration", "setting": "[1]; oral, 1.7 and 17 mg/kg", "value": "detectable"}, {"measurement": "Detection in retina/RPE/choroid, aqueous humor and vitreous humor", "setting": "[1]; topical eye drop 100 μg, 4 and 8 hours", "value": "detected"}, {"measurement": "Detection in plasma, retina, vitreous humor and bulbar conjunctiva", "setting": "[2]", "value": "detected in all tissues examined at all timepoints"}, {"measurement": "Functional potency for ETA and ETB receptors (rating)", "setting": "ETA receptor", "value": "High potency"}, {"measurement": "Specificity ETA vs ETB (rating)", "setting": "ETA receptor", "value": "High specificity"}, {"measurement": "ONH blood flow (mean blur rate, LSFG)", "setting": "[3]", "value": "improvement of ONH blood flow in a dose-dependent manner"}]}
